Reference: PubChem BioAssay (NCI)
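Protocol summary: plate cells (96-well), add compound at 5 concentrations, incubate 48 h, interpolate endpoints linearly. GI50 = concentration required for 50% inhibition of growth. TGI: concentration producing complete growth inhibition.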

Legend:
Assay in all cases: NCI anticancer screen, dose series, 48 h
[1] = test system: 786-0 renal
[2] = test system: A498 renal
[3] = test system: ACHN renal
[4] = test system: BT-549 breast
[5] = test system: CAKI-1 renal
[6] = test system: CCRF-CEM leukemia
[7] = test system: COLO 205 colon
[8] = test system: DU-145 prostate
[9] = test system: EKVX NSCLC
[10] = test system: HCC-2998 colon
[11] = test system: HCT-116 colon
[12] = test system: HCT-15 colon
[13] = test system: HL-60(TB) leukemia
[14] = test system: HOP-62 NSCLC
[15] = test system: HOP-92 NSCLC
[16] = test system: HS 578T breast
[17] = test system: HT29 colon
[18] = test system: IGROV1 ovarian
[19] = test system: K-562 leukemia
[20] = test system: KM12 colon
[21] = test system: M14 melanoma
[22] = test system: MALME-3M melanoma
[23] = test system: MCF7 breast
[24] = test system: MDA-MB-231 breast
[25] = test system: MDA-MB-435
[26] = test system: MOLT-4 leukemia
[27] = test system: NCI-H226 lung
[28] = test system: NCI-H23 lung
[29] = test system: NCI-H460 lung
[30] = test system: NCI-H522 lung
[31] = test system: NCI/ADR-RES ovarian
[32] = test system: OVCAR-3 ovarian
[33] = test system: OVCAR-4 ovarian
[34] = test system: OVCAR-5 ovarian
[35] = test system: OVCAR-8 ovarian
[36] = test system: PC-3 prostate
[37] = test system: RPMI-8226 leukemia
[38] = test system: RXF 393 renal
[39] = test system: SF-268 CNS
[40] = test system: SF-295 CNS
[41] = test system: SF-539 CNS
[42] = test system: SK-MEL-2 melanoma
[43] = test system: SK-MEL-28 melanoma
[44] = test system: SK-MEL-5 melanoma
[45] = test system: SK-OV-3 ovarian
[46] = test system: SN12C renal
[47] = test system: SNB-19 CNS
[48] = test system: SNB-75 CNS
[49] = test system: SR leukemia
[50] = test system: SW-620 colon
[51] = test system: T-47D breast
[52] = test system: TK-10 renal
[53] = test system: U251 CNS
[54] = test system: UACC-257 melanoma
[55] = test system: UACC-62 melanoma
[56] = test system: UO-31 renal

With `C[N+](C)=c1ccc2nc3c(cc(NCCCNc4cc5oc6cc(=[N+](C)C)ccc-6nc5c5ccccc45)c4ccccc43)oc-2c1` the GI50 [1] was 4.66 µM, the TGI [1] was 43.4 µM and the GI50 [2] was 19.1 µM. It also gave a TGI [2] of 46.9 µM, a GI50 [3] of 2.17 µM and a TGI [3] of 11.3 µM. For the same molecule, the GI50 [4] was 5.97 µM, the TGI [4] was > 64.3 µM and the GI50 [5] was 12.7 µM. The TGI [5] was 35.4 µM, the GI50 [6] was 4.39 µM and the TGI [6] was 21.7 µM. The GI50 [7] was 1.02 µM, the TGI [7] was 2.45 µM and the GI50 [8] was 1.53 µM. It also gave a TGI [8] of 2.91 µM, a GI50 [9] of 4.77 µM and a TGI [9] of 18.5 µM. It also gave a GI50 [10] of 1.77 µM, a TGI [10] of 3.47 µM and a GI50 [11] of 1.95 µM. It also gave a TGI [11] of 5.79 µM, a GI50 [12] of 1.9 µM and a TGI [12] of 6.33 µM. It also gave a GI50 [13] of 2.56 µM, a TGI [13] of 9.25 µM and a GI50 [14] of 2.92 µM. For the same molecule, the TGI [14] was 13 µM, the GI50 [15] was 14.7 µM and the TGI [15] was 40.1 µM. It also gave a GI50 [16] of 7.22 µM, a TGI [16] of 45.6 µM and a GI50 [17] of 1.81 µM. For the same molecule, the TGI [17] was 6.29 µM, the GI50 [18] was 1.36 µM and the TGI [18] was 8.67 µM. For the same molecule, the GI50 [19] was 1.57 µM, the TGI [19] was > 25.5 µM and the GI50 [20] was 2.55 µM. For the same molecule, the TGI [20] was 8.81 µM, the GI50 [21] was 1.63 µM and the TGI [21] was 3.18 µM. It also gave a GI50 [22] of 2.05 µM, a TGI [22] of 4.45 µM and a GI50 [23] of 0.885 µM. It also gave a TGI [23] of 3.23 µM, a GI50 [24] of 1.33 µM and a TGI [24] of 4.83 µM. For the same molecule, the GI50 [25] was 1.76 µM, the TGI [25] was 3.29 µM and the GI50 [26] was 3 µM. For the same molecule, the TGI [26] was 25 µM, the GI50 [27] was 22.1 µM and the TGI [27] was 63.7 µM. The GI50 [28] was 1.61 µM, the TGI [28] was 5.45 µM and the GI50 [29] was 1.89 µM. It also gave a TGI [29] of 4.06 µM, a GI50 [30] of 1.5 µM and a TGI [30] of 4.59 µM. The GI50 [31] was 6.63 µM, the TGI [31] was > 100 µM and the GI50 [32] was 0.341 µM. It also gave a TGI [32] of 2.33 µM, a GI50 [33] of 0.715 µM and a TGI [33] of 2.08 µM. It also gave a GI50 [34] of 2.85 µM, a TGI [34] of 10.9 µM and a GI50 [35] of 1.9 µM. The TGI [35] was 5.85 µM, the GI50 [36] was 1.2 µM and the TGI [36] was 5.64 µM. It also gave a GI50 [37] of 1.69 µM, a TGI [37] of 13.1 µM and a GI50 [38] of 6.04 µM. It also gave a TGI [38] of 37.5 µM, a GI50 [39] of 2.17 µM and a TGI [39] of 9.2 µM. It also gave a GI50 [40] of 4.64 µM, a TGI [40] of 31.8 µM and a GI50 [41] of 1.73 µM. It also gave a TGI [41] of 3.76 µM, a GI50 [42] of 15 µM and a TGI [42] of 45.7 µM. For the same molecule, the GI50 [43] was 3.77 µM, the TGI [43] was 14.7 µM and the GI50 [44] was 1.41 µM. For the same molecule, the TGI [44] was 2.79 µM, the GI50 [45] was 18.7 µM and the TGI [45] was 42.3 µM. For the same molecule, the GI50 [46] was 2.33 µM, the TGI [46] was 7.39 µM and the GI50 [47] was 3.6 µM. The TGI [47] was 19.4 µM, the GI50 [48] was 1.56 µM and the TGI [48] was 3.64 µM. The GI50 [49] was 2.58 µM, the TGI [49] was > 28.5 µM and the GI50 [50] was 1.77 µM. The TGI [50] was 4.02 µM, the GI50 [51] was 3.12 µM and the TGI [51] was > 24.2 µM. For the same molecule, the GI50 [52] was 17.3 µM, the TGI [52] was 39.3 µM and the GI50 [53] was 2.36 µM. For the same molecule, the TGI [53] was 5.87 µM, the GI50 [54] was 4.34 µM and the TGI [54] was 16.3 µM. It also gave a GI50 [55] of 2.3 µM, a TGI [55] of 6.88 µM and a GI50 [56] of 1.75 µM. The TGI [56] was 14 µM.
